In patent US10167262B2, “Herbicidal substituted 3-arylpyrazoles” (FMC CORPORATION, priority 2014, dated 2019):

Key:
Type in all cases: in vivo
[1] = test system: goosegrass (Eleusine indica); test: Test C postemergence greenhouse test, plant response rating 0-100
How it was run: (§1)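 Each weed species was grown in potting medium and sprayed after emergence, when 2–18 cm tall. Ratings, made by eye relative to control pots, were recorded 13–15 days later using a scale where 0 is no effect.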

[2] = test system: deadnettle (henbit deadnettle, Lamium amplexicaule); test: as above
How it was run: as §1

[3] = test system: windgrass (Apera spica-venti); test: as above
How it was run: as §1

[4] = test system: green foxtail (Setaria viridis); test: as above
How it was run: as §1

[5] = test system: woolly cupgrass (Eriochloa villosa); test: as above
How it was run: as §1

[6] = test system: bermudagrass (Cynodon dactylon); test: as above
How it was run: as §1

[7] = test system: surinam grass (Brachiaria decumbens); test: as above
How it was run: as §1

[8] = test system: winter barley (Hordeum vulgare); test: as above
How it was run: as §1

[9] = test system: canarygrass (Phalaris minor); test: as above
How it was run: as §1

[10] = test system: cocklebur (common cocklebur, Xanthium strumarium); test: as above
How it was run: as §1

[11] = test system: goosegrass (Eleusine indica); test: Test E pre-/postemergence greenhouse test, plant response rating 0-100; conditions: Preemergence, scale 0 to 100
kochia (Kochia scoparia) = test: as above; conditions: Preemergence, scale 0 to 100
How it was run: (§2)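 Greenhouse response on a 0 (none) to 100 (complete control) scale, assessed 14 to 21 days post-treatment. Soil-applied preemergence on silt loam; foliar postemergence on plants 2–18 cm high.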

[12] = test system: velvetleaf (Abutilon theophrasti); test: as above; conditions: Preemergence, scale 0 to 100
How it was run: as §2

[13] = test system: yellow nutsedge (Cyperus esculentus); test: as above; conditions: Preemergence, scale 0 to 100
[14] = test system: johnsongrass (Sorghum halepense); test: as above; conditions: Preemergence, scale 0 to 100

CCn1cc(C(=O)c2ccccc2)c(-c2cc(Cl)cc(Cl)c2)n1 [Compound 31, [3-(3,5-dichlorophenyl)-1-ethyl-1H-pyrazol-4-yl]phenylmethanone]
25: Plant response rating (0 to 100), Cocklebur ([10]; 125 g ai/ha) | Kochia plant response rating (kochia (Kochia scoparia); 125 g ai/ha)
80: Velvetleaf plant response rating ([12]; 250 g ai/ha) | Velvetleaf plant response rating ([12]; 500 g ai/ha)
70: Kochia plant response rating (kochia (Kochia scoparia); 500 g ai/ha)
65: Velvetleaf plant response rating ([12]; 62 g ai/ha)
35: Kochia plant response rating (kochia (Kochia scoparia); 62 g ai/ha)
50: Kochia plant response rating (kochia (Kochia scoparia); 250 g ai/ha) | Velvetleaf plant response rating ([12]; 125 g ai/ha)
10: Plant response rating (0 to 100), Deadnettle ([2]; 125 g ai/ha) | Plant response rating, Cocklebur ([10]; 16 g ai/ha)
5: Plant response rating, Cupgrass, Woolly ([5]; 16 g ai/ha) | Plant response rating (0 to 100), Cupgrass, Woolly ([5]; 31 g ai/ha) | Plant response rating (0 to 100), Cupgrass, Woolly ([5]; 62 g ai/ha) | Plant response rating (0 to 100), Cupgrass, Woolly ([5]; 125 g ai/ha) | Plant response rating, Surinam Grass ([7]; 16 g ai/ha) | Plant response rating (0 to 100), Surinam Grass ([7]; 62 g ai/ha) | Plant response rating (0 to 100), Surinam Grass ([7]; 125 g ai/ha)
20: Plant response rating (0 to 100), Cocklebur ([10]; 31 g ai/ha) | Plant response rating (0 to 100), Cocklebur ([10]; 62 g ai/ha)
0: Plant response rating, Goosegrass ([1]; 16 g ai/ha) | Plant response rating (0 to 100), Goosegrass ([1]; 31 g ai/ha) | Plant response rating (0 to 100), Goosegrass ([1]; 62 g ai/ha) | Plant response rating (0 to 100), Goosegrass ([1]; 125 g ai/ha) | Plant response rating, Deadnettle ([2]; 16 g ai/ha) | Plant response rating (0 to 100), Deadnettle ([2]; 31 g ai/ha) | Plant response rating (0 to 100), Deadnettle ([2]; 62 g ai/ha) | Plant response rating, Windgrass ([3]; 16 g ai/ha) | Plant response rating (0 to 100), Windgrass ([3]; 62 g ai/ha) | Plant response rating (0 to 100), Windgrass ([3]; 125 g ai/ha) | Plant response rating, Foxtail, Green ([4]; 16 g ai/ha) | Plant response rating (0 to 100), Foxtail, Green ([4]; 31 g ai/ha) | Plant response rating (0 to 100), Foxtail, Green ([4]; 62 g ai/ha) | Plant response rating (0 to 100), Foxtail, Green ([4]; 125 g ai/ha) | Plant response rating, Bermudagrass ([6]; 16 g ai/ha) | Plant response rating (0 to 100), Bermudagrass ([6]; 31 g ai/ha) | Plant response rating (0 to 100), Bermudagrass ([6]; 62 g ai/ha) | Plant response rating (0 to 100), Bermudagrass ([6]; 125 g ai/ha) | Plant response rating, Barley ([8]; 16 g ai/ha) | Plant response rating (0 to 100), Barley ([8]; 31 g ai/ha) | Plant response rating (0 to 100), Barley ([8]; 62 g ai/ha) | Plant response rating (0 to 100), Barley ([8]; 125 g ai/ha) | Plant response rating, Canarygrass ([9]; 16 g ai/ha) | Plant response rating (0 to 100), Canarygrass ([9]; 31 g ai/ha) | Plant response rating (0 to 100), Canarygrass ([9]; 62 g ai/ha) | Plant response rating (0 to 100), Canarygrass ([9]; 125 g ai/ha) | Goosegrass plant response rating ([11]; 62 g ai/ha) | Goosegrass plant response rating ([11]; 125 g ai/ha) | Goosegrass plant response rating ([11]; 250 g ai/ha) | Goosegrass plant response rating ([11]; 500 g ai/ha) | Nutsedge, Yellow plant response rating ([13]; 62 g ai/ha) | Nutsedge, Yellow plant response rating ([13]; 125 g ai/ha) | Nutsedge, Yellow plant response rating ([13]; 250 g ai/ha) | Nutsedge, Yellow plant response rating ([13]; 500 g ai/ha) | Johnsongrass plant response rating ([14]; 62 g ai/ha) | Johnsongrass plant response rating ([14]; 125 g ai/ha) | Johnsongrass plant response rating ([14]; 250 g ai/ha) | Johnsongrass plant response rating ([14]; 500 g ai/ha)

C#CCn1cc(C(=O)c2ccccc2)c(-c2cc(Cl)cc(Cl)c2)n1 [Compound 39, [3-(3,5-dichlorophenyl)-1-(2-propyn-1-yl)-1H-pyrazol-4-yl]phenylmethanone]
30: Kochia plant response rating (kochia (Kochia scoparia); 125 g ai/ha)
15: Plant response rating (0 to 100), Cocklebur ([10]; 62 g ai/ha) | Velvetleaf plant response rating ([12]; 62 g ai/ha)
65: Kochia plant response rating (kochia (Kochia scoparia); 250 g ai/ha)
5: Plant response rating, Foxtail, Green ([4]; 500 g ai/ha, scale 0 to 100)
100: Velvetleaf plant response rating ([12]; 500 g ai/ha)
55: Plant response rating (0 to 100), Cocklebur ([10]; 125 g ai/ha) | Plant response rating, Cocklebur ([10]; 250 g ai/ha, scale 0 to 100) | Plant response rating, Cocklebur ([10]; 500 g ai/ha, scale 0 to 100)
0: Plant response rating (0 to 100), Goosegrass ([1]; 62 g ai/ha) | Plant response rating (0 to 100), Goosegrass ([1]; 125 g ai/ha) | Plant response rating, Goosegrass ([1]; 250 g ai/ha, scale 0 to 100) | Plant response rating, Goosegrass ([1]; 500 g ai/ha, scale 0 to 100) | Plant response rating (0 to 100), Deadnettle ([2]; 62 g ai/ha) | Plant response rating (0 to 100), Deadnettle ([2]; 125 g ai/ha) | Plant response rating, Deadnettle ([2]; 250 g ai/ha, scale 0 to 100) | Plant response rating, Deadnettle ([2]; 500 g ai/ha, scale 0 to 100) | Plant response rating (0 to 100), Windgrass ([3]; 62 g ai/ha) | Plant response rating (0 to 100), Windgrass ([3]; 125 g ai/ha) | Plant response rating, Windgrass ([3]; 250 g ai/ha, scale 0 to 100) | Plant response rating, Windgrass ([3]; 500 g ai/ha, scale 0 to 100) | Plant response rating (0 to 100), Foxtail, Green ([4]; 62 g ai/ha) | Plant response rating (0 to 100), Foxtail, Green ([4]; 125 g ai/ha) | Plant response rating, Foxtail, Green ([4]; 250 g ai/ha, scale 0 to 100) | Plant response rating (0 to 100), Cupgrass, Woolly ([5]; 62 g ai/ha) | Plant response rating (0 to 100), Cupgrass, Woolly ([5]; 125 g ai/ha) | Plant response rating, Cupgrass, Woolly ([5]; 250 g ai/ha, scale 0 to 100) | Plant response rating, Cupgrass, Woolly ([5]; 500 g ai/ha, scale 0 to 100) | Plant response rating (0 to 100), Bermudagrass ([6]; 62 g ai/ha) | Plant response rating (0 to 100), Bermudagrass ([6]; 125 g ai/ha) | Plant response rating, Bermudagrass ([6]; 250 g ai/ha, scale 0 to 100) | Plant response rating, Bermudagrass ([6]; 500 g ai/ha, scale 0 to 100) | Plant response rating (0 to 100), Surinam Grass ([7]; 62 g ai/ha) | Plant response rating (0 to 100), Surinam Grass ([7]; 125 g ai/ha) | Plant response rating, Surinam Grass ([7]; 250 g ai/ha, scale 0 to 100) | Plant response rating, Surinam Grass ([7]; 500 g ai/ha, scale 0 to 100) | Plant response rating (0 to 100), Barley ([8]; 62 g ai/ha) | Plant response rating (0 to 100), Barley ([8]; 125 g ai/ha) | Plant response rating, Barley ([8]; 250 g ai/ha, scale 0 to 100) | Plant response rating, Barley ([8]; 500 g ai/ha, scale 0 to 100) | Plant response rating (0 to 100), Canarygrass ([9]; 62 g ai/ha) | Plant response rating (0 to 100), Canarygrass ([9]; 125 g ai/ha) | Plant response rating, Canarygrass ([9]; 250 g ai/ha, scale 0 to 100) | Plant response rating, Canarygrass ([9]; 500 g ai/ha, scale 0 to 100) | Goosegrass plant response rating ([11]; 62 g ai/ha) | Goosegrass plant response rating ([11]; 125 g ai/ha) | Goosegrass plant response rating ([11]; 250 g ai/ha) | Goosegrass plant response rating ([11]; 500 g ai/ha) | Kochia plant response rating (kochia (Kochia scoparia); 62 g ai/ha) | Nutsedge, Yellow plant response rating ([13]; 62 g ai/ha) | Nutsedge, Yellow plant response rating ([13]; 125 g ai/ha) | Nutsedge, Yellow plant response rating ([13]; 250 g ai/ha) | Nutsedge, Yellow plant response rating ([13]; 500 g ai/ha) | Johnsongrass plant response rating ([14]; 62 g ai/ha) | Johnsongrass plant response rating ([14]; 125 g ai/ha) | Johnsongrass plant response rating ([14]; 250 g ai/ha) | Johnsongrass plant response rating ([14]; 500 g ai/ha)
75: Kochia plant response rating (kochia (Kochia scoparia); 500 g ai/ha) | Velvetleaf plant response rating ([12]; 125 g ai/ha)
90: Velvetleaf plant response rating ([12]; 250 g ai/ha)
